Measurements taken from patent US20120178646A1, “HIGH THROUGHPUT METHOD AND SYSTEM FOR IN VIVO SCREENING” (ZF SCREENS B.V., priority 2009, published 2012).

System: Mycobacterium marinum strain E11
Assay: Granuloma formation in zebrafish larvae after intrayolk injection with Mycobacterium marinum (COPAS XL fluorescence profiling)
Type: in vivo
Conditions: zebrafish embryos injected intrayolk at 16- to 256-cell stage, refreshed daily, screened at 5 dpi, confirmed by stereo fluorescence microscopy

O=S(=O)(NCCNC/C=C/c1ccc(Br)cc1)c1cccc2cnccc12 [H89]
presence of CherryFP-labeled granulomas in larvae (exposed from 2 dpi to 10 μM in 0.5% DMSO): did not contain granulomas

CC[C@@H](CO)NCCN[C@@H](CC)CO [ethambutol]
presence of CherryFP-labeled granulomas in larvae (exposed from 2 dpi to 2 mM in water): did not contain granulomas
